From US10654895B2, “Polypeptide, DNA molecule encoding the polypeptide, vector, preparation method and use” (WUHAN MORE BIOTECHNOLOGY CO., LTD., priority 2013, dated 2020) come the findings set out here.

Test [1] deals with Escherichia coli (E. coli) ATCC25922. Particulars: >25 means greater than or equal to 50 μg/mL.
Test [2] has as its system Staphylococcus aureus (RA) ATCC25923. The following applies: for MIC: Staphylococcus aureus (RA) ATCC25923, >25 means greater than or equal to 50 μg/mL; for inhibitory effect / antiseptic activity in words: against Staphylococcus aureus (RA) ATCC25923 and/or Escherichia coli ATCC25922.
For test [3], the system named is Staphylococcus aureus.
Test [4] concerns Pseudomonas aeruginosa. Particulars: Pseudomonas aeruginosa, strain not specified (Table 8).
For test [5], the system named is Escherichia coli.
The subject of test [6] is Methicillin-resistant Staphylococcus aureus (MRSA). The following applies: Methicillin-resistant Staphylococcus aureus (Table 8).
Setting [7] is: Staphylococcus aureus (methicillin-sensitive), strain not specified (Table 8).
The mark [8] stands for this setting: Escherichia coli, strain not specified (Table 8).
Where [9] appears, read: standard Staphylococcus aureus (Table 2).
Where [10] appears, read: standard Escherichia coli (Table 2).

Where two headings read alike, the source gives them in different places. No end group written: not given here.

As a reminder, the MIC is the least concentration at which growth counts as inhibited. “ARLLRIFFIRIARLLRIF [Ctryamp polypeptide mutant 27, ARLLRIFFIRIARLLRIF]”: the MIC in test [1] and in test [2] was more than 25 µg/mL throughout.

Turning to “Ac-FIRIARLLRIF [Ctryamp polypeptide mutant 32, Ac-FIRIARLLRIF]”, in test [1], the minimal inhibitory concentration (MIC) is 25 µg/mL. Further, in test [2], the MIC was determined as 6.25 µg/mL and the “inhibitory effect / antiseptic activity in words” value was “still have the antiseptic activity”.

With “FFIRIARLLRIF [Ctryamp polypeptide mutant 21, FFIRIARLLRIF]”, the MIC in test [1] amounted to 25 µg/mL; in test [2], 12.5 µg/mL.

Take “FIGAIARLLRKIF [ABP-W1, reference compound]”: the “Minimum inhibitory concentration MIC” value in test [3] (setting [7]) was 3.13 µg/mL; in test [4], more than 100 µg/mL; in test [5] (setting [8]), more than 100 µg/mL; in test [6], 8 µg/mL.

Turning to “FIGAIARLLSKIF [BmKAMP1, reference compound]”, the “Minimum inhibitory concentration MIC” value was 3.13 µg/mL in test [3] (setting [7]), more than 100 µg/mL in test [4], more than 100 µg/mL in test [5] (setting [8]) and 12.5 µg/mL in test [6].

Take FIHIAHLLRIF [Ctryamp-5, FIHIAHLLRIF]: the “Minimum inhibitory concentration MIC” value in test [3] (setting [9]) stood at 12.5 µg/mL; in test [5] (setting [10]) it was 6.25 µg/mL.

Take FIHIAKLLRIF [Ctryamp-7, FIHIAKLLRIF]: the “Minimum inhibitory concentration MIC” value came out at 6.25 µg/mL in test [3] (setting [9]) and 12.5 µg/mL in test [5] (setting [10]).

With FIHIARLLHIF [Ctryamp-6, FIHIARLLHIF], the “Minimum inhibitory concentration MIC” value in test [3] (setting [9]) and in test [5] (setting [10]) was 6.25 µg/mL each time.

For the substance FIHIARLLRIF [Ctryamp-R3H, FIHIARLLRIF], the “Minimum inhibitory concentration MIC” value in test [3] (setting [9]) and in test [5] (setting [10]) was 6.25 µg/mL throughout.

In the case of FIKIAKLLKIF [Ctryamp-4, FIKIAKLLKIF], the results for the “Minimum inhibitory concentration MIC” value in test [3] (setting [9]) and in test [5] (setting [10]) were 12.5 µg/mL and 6.25 µg/mL, respectively. Also, the MIC worked out at 12.5 µg/mL in test [1] and 25 µg/mL in test [2].

As to FIKIAKLLRIF [Ctryamp-1, FIKIAKLLRIF], the “Minimum inhibitory concentration MIC” value in test [3] (setting [9]) and in test [5] (setting [10]) was 6.25 µg/mL each time.

Turning to FIKIARLLKIF [Ctryamp-2, FIKIARLLKIF], the “Minimum inhibitory concentration MIC” value worked out at 12.5 µg/mL in test [3] (setting [9]) and 6.25 µg/mL in test [5] (setting [10]). In addition, the MIC in test [1] and in test [2] was 12.5 µg/mL in each case.

With FIKIARLLRIF [Ctryamp-R3K, FIKIARLLRIF], the entries for the “Minimum inhibitory concentration MIC” value in test [3] (setting [9]) and in test [5] (setting [10]) were 6.25 µg/mL and 12.25 µg/mL, respectively.

Take “FIKIGKILKIF [Ctryamp polypeptide mutant 7, FIKIGKILKIF]”: the MIC in test [1] was 12.5 µg/mL; in test [2] it was more than 25 µg/mL.

On to “FIKIGKLLKIF [Ctryamp polypeptide mutant 6, FIKIGKLLKIF]”, for which the MIC in test [1] amounted to 12.5 µg/mL; in test [2], 25 µg/mL.

Take “FIKRIARLLRIF [Ctryamp polypeptide mutant 20, FIKRIARLLRIF]”: the MIC in test [1] and in test [2] was 6.25 µg/mL throughout.

With “FIKRIARLLRKIF [BmKAMP1-M, reference compound]”, the “Minimum inhibitory concentration MIC” value turned out to be 12.5 µg/mL in test [3] (setting [7]), 50 µg/mL in test [4], 12.5 µg/mL in test [5] (setting [8]) and 6.25 µg/mL in test [6].

Take “FIRARLLRIF [Ctryamp polypeptide mutant 10, FIRARLLRIF]”: the minimal inhibitory concentration (MIC) in test [1] and in test [2] was more than 25 µg/mL each time.

Turning to “FIRIADLLRIF [Ctryamp polypeptide mutant 2, FIRIADLLRIF]”, the values for the MIC in test [1] and in test [2] were more than 25 µg/mL and 25 µg/mL, respectively.

In the case of FIRIAHLLRIF [Ctryamp-R5H, FIRIAHLLRIF], the “Minimum inhibitory concentration MIC” value in test [3] (setting [9]) was determined as 6.25 µg/mL; in test [5] (setting [10]) it was 12.5 µg/mL.

FIRIAKLLHIF [Ctryamp-8, FIRIAKLLHIF]: the “Minimum inhibitory concentration MIC” value in test [3] (setting [9]) turned out to be 6.25 µg/mL; in test [5] (setting [10]) it was 12.5 µg/mL.

As to FIRIAKLLKIF [Ctryamp-3, FIRIAKLLKIF], the “Minimum inhibitory concentration MIC” value in test [3] (setting [9]) worked out at 6.25 µg/mL; in test [5] (setting [10]), 12.5 µg/mL. The MIC in test [1] and in test [2] was 12.5 µg/mL throughout.

As for FIRIAKLLRIF [Ctryamp-R5K, FIRIAKLLRIF], the “Minimum inhibitory concentration MIC” value in test [3] (setting [9]) and in test [5] (setting [10]) was 6.25 µg/mL in each case.

Take “FIRIARLLEIF [Ctryamp polypeptide mutant 1, FIRIARLLEIF]”: the minimum inhibitory concentration (MIC) in test [1] is more than 25 µg/mL. Moreover, in test [2], the MIC is more than 25 µg/mL and the “inhibitory effect / antiseptic activity in words” value is listed as “no antiseptic activity”.

Consider FIRIARLLHIF [Ctryamp-R9H, FIRIARLLHIF], for which the “Minimum inhibitory concentration MIC” value in test [3] (setting [9]) and in test [5] (setting [10]) was 6.25 µg/mL throughout.

Turning to “FIRIARLLIF [Ctryamp polypeptide mutant 11, FIRIARLLIF]”, the MIC in test [1] and in test [2] was more than 25 µg/mL throughout.

On to FIRIARLLKIF [Ctryamp-R9K, FIRIARLLKIF], for which the “Minimum inhibitory concentration MIC” value turned out to be 6.25 µg/mL in test [3] (setting [9]) and 12.5 µg/mL in test [5] (setting [10]).

Turning to “FIRIARLLKRIF [Ctryamp polypeptide mutant 18, FIRIARLLKRIF]”, the MIC in test [1] was 12.5 µg/mL; in test [2] it was 6.25 µg/mL.

With “FIRIARLLRIFFIRIARLLRIF [Ctryamp polypeptide mutant 31]”, the MIC in test [1] and in test [2] was more than 25 µg/mL each time.

Take “FIRIARLLRKIF [Ctryamp polypeptide mutant 17, FIRIARLLRKIF]”: the minimum inhibitory concentration (MIC) in test [1] was 12.5 µg/mL; in test [2] it was 6.25 µg/mL.

On to “FIRIARLRIF [Ctryamp polypeptide mutant 8, FIRIARLRIF]”, for which the MIC in test [1] is 12.5 µg/mL; in test [2] it was 25 µg/mL.

As to “FIRKIARLLRIF [Ctryamp polypeptide mutant 19, FIRKIARLLRIF]”, the minimal inhibitory concentration (MIC) in test [1] and in test [2] was 6.25 µg/mL each time.

For “FIRLRIF [Ctryamp polypeptide mutant 14, FIRLRIF]”, the MIC in test [1] and in test [2] was more than 25 µg/mL each time.

As for “FIRRLLRIF [Ctryamp polypeptide mutant 12, FIRRLLRIF]”, the results for the MIC in test [1] and in test [2] were 25 µg/mL and 12.5 µg/mL, respectively.

Consider “FIRRLRIF [Ctryamp polypeptide mutant 13, FIRRLRIF]”, for which the MIC in test [1] and in test [2] was more than 25 µg/mL throughout.

Regarding “FRIARLLRIF [Ctryamp polypeptide mutant 9, FRIARLLRIF]”, the MIC in test [1] turned out to be 6.25 µg/mL; in test [2], 12.5 µg/mL.

With “GFIRIARLLRIF [Ctryamp polypeptide mutant 16, GFIRIARLLRIF]”, the MIC in test [1] and in test [2] was 6.25 µg/mL each time.

Turning to “IARLLRIFFIRIARLLRIF [Ctryamp polypeptide mutant 28, IARLLRIFFIRIARLLRIF]”, the MIC in test [1] and in test [2] was more than 25 µg/mL each time.

As for “IFFIRIARLLRIF [Ctryamp polypeptide mutant 22, IFFIRIARLLRIF]”, the minimum inhibitory concentration (MIC) in test [1] is more than 25 µg/mL; in test [2] it was 12.5 µg/mL.

For “IRIARLLRIFFIRIARLLRIF [Ctryamp polypeptide mutant 30]”, the MIC in test [1] and in test [2] was more than 25 µg/mL in each case.

Take “LLRIFFIRIARLLRIF [Ctryamp polypeptide mutant 25, LLRIFFIRIARLLRIF]”: the MIC in test [1] is more than 25 µg/mL; in test [2] it was 25 µg/mL.

In the case of “LRIFFIRIARLLRIF [Ctryamp polypeptide mutant 24, LRIFFIRIARLLRIF]”, the MIC in test [1] was more than 25 µg/mL; in test [2] it was 25 µg/mL.

With “RIARLLRIFFIRIARLLRIF [Ctryamp polypeptide mutant 29]”, the MIC in test [1] and in test [2] was more than 25 µg/mL throughout.

With “RIFFIRIARLLRIF [Ctryamp polypeptide mutant 23, RIFFIRIARLLRIF]”, the MIC in test [1] and in test [2] was 12.5 µg/mL in each case.

On to “RLLRIF [Ctryamp polypeptide mutant 15, RLLRIF]”, for which the MIC in test [1] and in test [2] was more than 25 µg/mL in each case.

Take “RLLRIFFIRIARLLRIF [Ctryamp polypeptide mutant 26, RLLRIFFIRIARLLRIF]”: the MIC in test [1] and in test [2] was more than 25 µg/mL in each case.
